Test results from patent publication US9221810B2, “Substituted bicyclic aromatic compounds as S-nitrosoglutathione reductase inhibitors” (Nivalis Therapeutics, Inc., priority 2010, dated 2015).

Columns and labels:
[1] = system: mouse model of ovalbumin (OVA)-induced asthma; assay: Mouse model of ovalbumin (OVA)-induced asthma: MCh-induced AHR (Penh) and eosinophil infiltrate in BALF; format: in vivo; details: three oral doses of 10 mg/kg at 48 h, 24 h, and 1 h prior to assessment; p<0.05
Procedure: A mouse model of ovalbumin (OVA)-induced asthma was used to screen GSNOR inhibitors for efficacy against methacholine (MCh)-induced bronchoconstriction/airway hyper-responsiveness. This is a widely used and well characterized model that presents with an acute, allergic asthma phenotype with similarities to human asthma. Efficacy of GSNOR inhibitors was assessed using a protocol in which GSNOR inhibitors were administered after OVA sensitization and airway challenge, and prior to challenge with MCh. Bronchoconstriction in response to challenge with increasing doses of MCh was assessed using whole body plethysmography (Penh; Buxco). The amount of eosinophil infiltrate into the bronchoaveolar lavage fluid (BALF) was also determined as a measure of lung inflammation. The effects of GSNOR inhibitors were compared to vehicles and to Combivent (inhaled; IH) as the positive control.
OVA (500 μg/ml) in PBS was mixed with equal volumes of 10% (w/v) aluminum potassium sulfate in distilled water and incubated for 60 min. at room temperature after adjustment to pH 6.5 using 10 N NaOH. After centrifugation at 750×g for 5 min, the OVA/alum pellet was resuspended to the original volume in distilled water. Mice received an intraperitoneal (IP) injection of 100 μg OVA (0.2 mL of 500 μg/mL in normal saline) complexed with alum on day 0. Mice were anesthetized by IP injection of a 0.2-mL mixture of ketamine and xylazine (0.44 and 6.3 mg/mL, respectively) in normal saline and were placed on a board in the supine position. Two hundred fifty micrograms (100 μl of a 2.5 mg/ml) of OVA (on day 8) and 125 μg (50 μl of 2.5 mg/ml) OVA (on days 15, 18, and 21) were placed on the back of the tongue of each animal.
In vivo airway responsiveness to methacholine was measured 24 h after the last OVA challenge in conscious, freely moving, spontaneously breathing mice with whole body plethysmography using a Buxco chamber (Wilmington, N.C.). […] The degree of bronchoconstriction was expressed as enhanced pause (Penh), a calculated dimensionless value, which correlates with the measurement of airway resistance, impedance, and intrapleural pressure in the same mouse. Penh readings were taken and averaged for 4 min. after each nebulization challenge. Penh is calculated as follows: Penh=[(Te/Tr−1)×(PEF/PIF)], where Te is expiration time, Tr is relaxation time, PEF is peak expiratory flow, and PIF is peak inspiratory flow×0.67 coefficient. […]
After measurement of airway hyper-reactivity, the mice were exsanguinated by cardiac puncture, and then BALF was collected from either both lungs or from the right lung after tying off the left lung at the mainstem bronchus. Total BALF cells were counted from a 0.05 mL aliquot, and the remaining fluid was centrifuged at 200×g for 10 min at 4° C. […]

[2] = system: acute dextran sodium sulfate (DSS)-induced IBD; assay: Acute prophylactic model of DSS-induced IBD in mice; format: in vivo, male C57Bl/6 mice
From the text: Acute and chronic models of dextran sodium sulfate (DSS)-induced IBD in mice were used to explore efficacy of GSNORi against this disease. Acute and chronic DSS-induced IBD are widely used and well characterized models that induce pathological changes in the colon similar to those observed in the human disease. In these models and in human disease, epithelial cells within the crypts of the colon are disrupted, leading to dysfunction of the epithelial barrier and the ensuing tissue inflammation, edema, and ulceration. GSNORi therapy may benefit IBD by restoring s-nitrosoglutathione (GSNO) levels, and thus prevent or reverse the epithelial barrier dysfunction. Experimental IBD was induced by administration of DSS in the drinking water of male C57Bl/6 mice (N=8 to 10 mice per group) for 6 consecutive days. GSNORi was dosed orally at doses of 0.1 to 10 mg/kg/day for 10 days starting two days prior to and continuing two days post DSS exposure. Two days post DSS exposure, the effect of GSNORi was assessed in a blinded fashion via endoscopy and histopathology using a five point scale ranging from a score=0 (normal tissue) through a score=4 (ulcerative tissue damage and marked pathological changes). Levels of circulating cytokines involved in inflammatory pathways were also assessed. The effect of GSNORi was compared to vehicle treated controls. The corticosteroid, prednisolone, was used as the positive control in this study and was administered daily at 3 mg/kg/day via oral dosing. Naïve mice (N=5) were also assessed as a normal tissue control.

[3] = oral 10 mg/kg/day for 10 consecutive days, prophylactic

Structure (SMILES) | decrease of eosinophil infiltration in BAL [1] | circulating inflammatory cytokines ([2]; acute DSS model, oral dosing) | effects compared to prednisolone (positive control) ([2]; prednisolone 3 mg/kg/day oral) | decrease of percent of mice with severe colon injury scores via endoscopy [2, 3] | decrease of percent of mice with severe colon injury scores via histopathology [2, 3]
O=C(O)c1ccc(-c2ccc3cc(O)ccc3n2)cc1 [Example 3, 4-(6-hydroxyquinolin-2-yl)benzoic acid] | 42 % of vehicle control | restored circulating inflammatory cytokines towards levels observed in untreated naïve mice | comparable to or greater than those observed for prednisolone | – | –
O=C(O)c1ccc(-c2ccc3cc(O)ccc3n2)c(Cl)c1 [Example 8, 3-chloro-4-(6-hydroxyquinolin-2-yl)benzoic acid] | 37 % of vehicle control | – | – | 44 % of vehicle control | 26 % of vehicle control
